Test results published in PMC5514153, “Targeting PTPRZ inhibits stem cell-like properties and tumorigenicity in glioblastoma cells” (Scientific Reports, 2017).

Target: T1, PTPRZ1 V1911F (Homo sapiens, UniProt P23471, V1911F)
T1 construct: Point mutants of the PTPRZ1-ICR, PTPRG-ICR, and PTPN1 catalytic domain were generated; GST (N); made in house
Test: Inhibitor sensitivity of point mutant PTPRZ1 V1911F
Assay type: biochemical
Settings: 10 µM, vs wild-type PTPRZ1
From the text: Figure 5 Structural basis for PTPRZ inhibition of NAZ2329. (A) An enlarged view of the X-ray structure of human PTPRZ1-D1 complexed with NAZ2329 (PDB ID: 5H08) (left), X-ray structure of the apo (open) form of PTPRZ1-D1 (PDB ID: 5AWX, ref. [6], middle) and a computer-modeled structure of the closed form of PTPRZ1-D1 complexed with a competitive inhibitor, SCB4380 (ref. [6], right), are shown. PTPRZ1-D1 is shown as a gray surface representation, in which Cys1933 at the active site and Val-1911 at the bottom of the allosteric pocket are indicated in red and yellow, respectively. Inhibitors are colored according to the atomic species in a stick figure representation as follows: oxygen (red), nitrogen (blue), sulfur (yellow), and carbon (green). The bottom figures show the conformation of the WPD loop (orange) as cartoon representations, in which Asp1901 and Cys1933 are indicated by orange and red spheres, respectively. Side chains of Arg1939 at the active site, Met1902 in the WPD loop, and Val-1911 at the bottom of the allosteric binding area are also shown in the stick representation. (B) LigPlot representation of the NAZ2329 interaction with PTPRZ1-D1. The predicted hydrogen bonds (broken black lines) and residues (red spoked arcs) involved in the hydrophobic interaction are shown. […]

T1 sequence (P23471 1663-2315 V1911F limits assumed): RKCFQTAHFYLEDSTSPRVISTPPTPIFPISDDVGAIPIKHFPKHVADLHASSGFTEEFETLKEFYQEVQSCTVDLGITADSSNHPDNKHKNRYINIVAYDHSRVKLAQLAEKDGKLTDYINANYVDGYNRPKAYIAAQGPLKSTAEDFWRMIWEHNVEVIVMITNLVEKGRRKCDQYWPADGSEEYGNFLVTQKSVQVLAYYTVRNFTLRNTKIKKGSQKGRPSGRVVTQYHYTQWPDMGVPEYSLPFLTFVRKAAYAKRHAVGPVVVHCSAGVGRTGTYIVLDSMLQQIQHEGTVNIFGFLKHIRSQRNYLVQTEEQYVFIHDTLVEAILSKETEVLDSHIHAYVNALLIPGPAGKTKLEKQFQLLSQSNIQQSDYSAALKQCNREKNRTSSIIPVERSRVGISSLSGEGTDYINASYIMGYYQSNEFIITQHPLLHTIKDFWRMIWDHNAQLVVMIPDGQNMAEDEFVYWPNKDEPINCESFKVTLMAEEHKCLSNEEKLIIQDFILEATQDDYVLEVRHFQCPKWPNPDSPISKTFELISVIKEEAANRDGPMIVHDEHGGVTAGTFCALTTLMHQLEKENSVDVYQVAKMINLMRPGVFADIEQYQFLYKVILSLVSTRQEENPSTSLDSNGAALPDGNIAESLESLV

CCOc1ccc(C(F)(F)F)cc1CSc1ccsc1C(=O)NS(=O)(=O)c1ccccc1 [NAZ2329]
effect of V1911F substitution on sensitivity to inhibitor: markedly reduced the sensitivity
